# Data reported in a melting point compilation (Tetko et al.; mined from patent text by program, amines drawn as free bases though some values may be those of a salt).
row,Compound,melting point [°C]
1,CCOc1cc2c(cc1OCC)C(C=Cc1ccc(O)c(OC)c1)=NN=C(C)C2,190 to 191
2,CCNC(=O)c1sc(I)cc1[Si](C)(C)C,85 to 88
3,N#Cc1ccc(Oc2ccc3c(c2)CCNC3=O)nc1,192 to 194
4,Cc1cc(CNC(=O)c2cc(-c3ccc(C(C)(C)C)cc3)[nH]n2)ccc1OC(C)(C)C(=O)O,100
5,C[C@@H](NC(=O)c1nc(-c2ccc(Cl)cc2)no1)[C@](O)(Cn1cncn1)c1ccc(F)cc1F,170 to 172
6,COc1ccc(/C=C/c2ccccc2[N+](=O)[O-])c([N+](=O)[O-])c1,142 to 143
7,COc1cccc(C23CCCC=C2C(=O)NC(=O)C3)c1 (stereo not given),230 to 232
8,CN(C)CCC=C1c2ccccc2COc2ccc(CCO)cc21,100 to 102
9,COC(=O)c1ccc(N2CCN(Cc3ccccc3)CC2)cc1,105 to 107
10,CCOc1ccc(OCc2ccc(OCc3nc(-c4ccccc4)oc3C)cc2)cc1CC(=O)O,122 to 123
11,COC(=O)c1cc(I)c[nH]c1=O,190 to 192
12,Cn1c(C(F)(F)F)cc(=O)n(-c2c(F)ccc3nc(Cl)sc23)c1=O,69 to 71
13,CCOC(=O)C(C)Oc1cc(C(=O)O)c(O)c2ccccc12 (stereo not given),75
14,COc1ccc(NC(=O)Nc2ccc(Cl)c(Cl)c2)cc1N,202 to 204
15,Cc1c(C(=O)Nc2ccc(OCC(C)(C)C)c(C#N)c2)cnn1-c1ccc(F)cc1,126 to 127
16,Cc1c(-c2ccccc2)oc2c(NC(=O)C(F)(F)F)cccc2c1=O,175 to 176
17,CCSc1ccc(C(=O)NCc2ccc3c(c2)C(=O)N(C2CCC(=O)NC2=O)C3=O)nc1 (stereo not given),198 to 200
18,ClCc1coc(-c2cccc(OCc3ccccc3)c2)n1,49 to 50
19,CC(C)NC(=O)OCC(=O)c1ccccc1F,70 to 74
20,Cc1ccc(Cc2c[nH]c(NCCSCc3ccco3)nc2=O)cn1,147 to 152
21,CCOc1ccc([C@@H]2CCNC(=O)[C@H]2c2ccccc2)cc1 (relative stereo),161 to 162
22,CC(C)CCc1c(-c2ccc(S(C)(=O)=O)c(F)c2)cnn(-c2ccc(F)c(F)c2)c1=O,119 to 121
23,Cc1nc2c(Cl)cccc2c(=O)n1C1CCC(=O)NC1=O (stereo not given),290 to 292
24,CCN(CC)CC1CCCCN1CCCNC(=O)N1c2ccccc2NC(=O)c2ccccc21 (stereo not given),148 to 150

row,Compound,melting point [°C]
1,Cc1ncn(-c2ccccc2CNC(=O)c2nc3n(c(=O)c2OCc2ccccc2)CCOC3(C)C)n1,213 to 214
2,O=S(=O)(c1ccccc1)n1cc(CCOC2OC(CO)C(O)CC2O)c2ccccc21 (stereo not given),55 to 57
3,CC(=NNc1ccc(C2=NNC(=O)CC2)cc1)c1cccnc1,236 to 237
4,CCNC(=O)c1cc(-c2ccc(OC)cc2)nn(CC2CCCC2)c1=O,129
5,CCCNc1cn(-c2cccnc2)nc1C,65 to 67
6,COc1ccc(N2CCN(CCC3OCCc4ccc(Br)cc43)CC2)cc1 (stereo not given),78 to 79
7,Cn1c(C(F)(F)F)cc(=O)n(-c2cc(S(=O)(=O)n3cccn3)c(Cl)cc2F)c1=O,172
8,COc1ccccc1C(=O)c1cccc([N+](=O)[O-])c1,94
9,CSc1ccc(C2=C(c3ccc(Cl)cc3)CCC2)cc1,72 to 74
10,CCC(Oc1cccc([N+](=O)[O-])c1Cl)C1=NCCN1 (stereo not given),100 to 103
11,Fc1ccc(-c2cc(Cl)c3ccccc3n2)cc1,90 to 93
12,Cc1ncnn1-c1cc(F)ccc1CNC(=O)c1nc2n(c(=O)c1OCc1ccccc1)CCN2c1ccccc1,181
13,CCOC(=O)c1ncn2c1[C@@H]1CCN1C(=O)c1c(Cl)cccc1-2,184 to 185
14,N#Cc1cnn2c(C(F)(F)F)cc(-c3ccncc3)nc12,233
15,CCN(CC)C(=O)Nc1ccc2c(c1Cl)C(c1ccccc1F)=NCC(=O)N2C,190 to 191
16,CCCCCCCCc1ccc(-c2cnc(-c3ccc(O)cc3F)nc2)cc1,167
17,CCCCCCN(Cc1ccc(-c2ccccc2-c2nnn[nH]2)cc1)c1ncc(C(=O)O)s1,113 to 117
18,NC(=O)C(O)c1cc(F)cc2cccnc12 (stereo not given),169 to 171
19,C[C@@H]1CN(CC(=O)Nc2ccccc2Cl)C[C@H](C)N1c1ncnc2c1ncn2C,221 to 222
20,CON=C(c1ccccc1)c1ccc2c(c1)NC(=O)CO2,147 to 149
21,Cc1ccc(-c2ncc3c(n2)CCCC3)nc1-c1ccc(C=O)cc1,151 to 154
22,CN1C(=O)C(NC(=O)CCc2ccccc2)N=C(N(C)C2CCCCC2)c2ccccc21 (stereo not given),167 to 168
23,O=C(O)CCCc1c(Cl)cccc1-c1ccccc1,74 to 76
24,OCc1cc(-c2ccccc2)nn1Cc1ccc(Cl)cc1Cl,140 to 141

row,Compound,melting point [°C]
1,CCOC(=O)NNc1cc(C)c(-c2ccccc2)nn1,143 to 145
2,Cn1c(=O)c(-c2c(Cl)cccc2Cl)cc2cnc(NC3CCCCC3)nc21,242 to 244
3,NC(=O)c1c(Br)cc(Br)c(CCC(=O)O)c1Br,197
4,COC(=O)C(Cl)Cc1ccc2c(c1)NC(=O)C(Cc1ccccc1)O2 (stereo not given),124 to 127
5,CCCCC1=N/C(=C\c2c[nH]c3ncc(Cl)cc23)C(=O)N1C,295 to 300
6,O=c1oc(C(F)(F)F)ccc1-c1ccc(Cl)cc1F,107 to 108
7,O=C1Nc2ccc(F)c(F)c2C(C#Cc2ccccn2)(C(F)(F)F)N1 (racemic),219 to 220
8,Cc1nc2sc3c(c2c2[nH][nH]c(=O)c12)CCN(C(=O)OC(C)(C)C)C3,> 300
9,N#Cc1ccc(NC(=O)c2cccc(OCc3ccc(Cl)cn3)c2)cc1,168 to 169
10,CCOC(=O)Cn1c2cccccc-2c(CC)c1=O,128 to 131
11,CCOC(=O)c1ccc(-c2cc3c(NCc4cccc(Cl)c4)ncnc3[nH]2)cc1,305 to 306
12,CSc1ccc(C=CC(N)=NO)s1,70 to 71
13,C[C@@](O)(C(=O)Nc1ccc(S(=O)(=O)c2ccccc2F)cc1Cl)C(F)(F)F,90 to 92
14,CC(C)(C)S(=O)(=O)CC(Cc1ccccc1)C(=O)O (stereo not given),147 to 148
15,COC(=O)[C@@H]1CCCN1S(=O)(=O)c1ccc(Cl)c(COc2cccc3c(C)cc(C)nc23)c1OC,66 to 70
16,Cc1ccc(OCc2ccccc2)c(C(CCN2CC3CC3(C)C2)c2ccccc2)c1 (stereo not given),74.9 to 76
17,Cc1ncncc1NC(=O)Nc1ccc(-n2nc(C(F)(F)F)cc2C2CC2)cc1,190 to 192
18,CC(=O)OCCOc1ncnc(NS(=O)(=O)c2ccc(C)cc2)c1CCc1ccccc1,120 to 123
19,CC(C)c1ccc(N(Cc2ccc(O)cc2)C(=O)C2CCCc3c(O)cccc32)cc1 (stereo not given),241 to 243
20,NC(=O)Oc1ccc2c(c1)[nH]c(=O)c1c3ccc(OC(N)=O)cc3oc21,215 to 220
21,CCc1ccc2c(O)ccnc2c1,148 to 152
22,COC(=O)Cn1nnc(NC(=O)C2c3ccccc3Oc3ccccc32)n1,243 to 244

# The remaining lines, values ahead:
row,melting point [°C],Compound
1,160,O=C(O)c1ccc(OCCCc2ccc(OCCCC3CCCCC3)cc2)c(C(=O)NC2CCCC(C(=O)O)C2)c1 (stereo not given)
2,131 to 132,CCOc1nn(-c2ccc(C(F)(F)F)cn2)cc1CCCOc1ccc(CCC(=O)O)cc1OC
3,132 to 134,CC(C)(C)OC(=O)N1CCc2ccc3ccn(CCOc4ccccc4F)c3c2CC1
4,263 to 265,COc1ccc(/C=C/S(=O)(=O)CS(=O)(=O)/C=C/c2ccc(OC)c([N+](=O)[O-])c2)cc1[N+](=O)[O-]
5,170 to 172,CN(C)/C=C1/C(=O)N(C(=O)OC(C)(C)C)C2C3=C(CCCC3(C)C)CC12 (stereo not given)
6,81 to 83,CSc1nc(CCC(F)(F)F)nc2sc(C)cc12
7,243 to 244,COc1cc2ccccc2cc1-c1nc(N)nc(N)n1
8,106 to 108,Cc1ccc(C(=O)NCCc2ccccc2Cl)cc1
9,> 250,Cc1cc(C(=O)O)c(O)cc1C(N)C(=O)O (stereo not given)
10,64 to 66,CCC(O)(CC)c1cc(Br)ccc1N
11,116 to 117,CC(C)(C)OC(=O)CNC(=O)c1ccc(N)c(Cl)c1
12,152 to 153,OCC1OC(n2c(Cl)nc3ccc(Br)cc32)C(O)C1O (stereo not given)
13,158,CCN(c1ccc(C)cc1)c1nc(=O)c2cccnc2s1
14,95 to 97,Cn1c(-c2ccccc2F)nnc1S(C)=O (stereo not given)
15,154,COc1ccc(CCN(C)CCc2ccc(NC(=O)c3cccc4c(=O)c5ccccc5sc34)cc2)cc1OC
16,160 to 165,O=C(O)CNC(=Nc1ccccc1)NC1CCCCC1
17,260,CC(C)N1C(=O)CCCc2cc(Nc3ncc(Cl)c(NC4C5C=CC(C5)C4C(N)=O)n3)ccc21 (stereo not given)
18,181 to 184,COc1ccc(CCNC(=O)C(F)(F)F)c2ccc(=O)[nH]c12
19,144 to 146,COC(=O)C(NS(=O)(=O)c1ccc(-c2ccc([N+](=O)[O-])cc2)cc1)C(C)C (stereo not given)
20,157 to 158,COc1ccc2c(c1)C(=O)c1c-2c(N2CCNCC2)nc2ccc(F)cc12
21,160 to 162,CN1CCN(c2cccc3c(S(=O)(=O)c4ccccc4)c[nH]c23)CC1
22,68 to 70,COc1ccc(-c2cc(=Nc3c(C)cc(C)cc3C)n(C)c(=O)n2C)cc1OC
23,136 to 138,CC(=O)OC1CSC(Oc2cncc(-c3ccc(C#N)cc3C)c2)C(OC(C)=O)C1OC(C)=O (stereo not given)
24,165 to 166,CC(C)(C)c1cc(C(=O)c2ccc(Cl)cc2)cc(CN2CCOCC2)c1O
25,268 to 270,CC1(C)Oc2cc(C(=O)O)sc2[C@@H](N2CCCCC2=O)[C@@H]1O (relative stereo)
26,35,CCCCCCCCCCCCCCCCCCOC(=O)c1ccccc1I
27,193 to 194,Cc1ccnc(C(=O)c2[nH]c3cc(Cl)ccc3c2NC(=O)CN(C)C)c1
28,98 to 99,COC(=O)CC(CC(=O)OC)Sc1cc(OC)cc(OC)c1
29,209 to 210,CCc1c(C(=O)c2cc(C)cc(C)c2)n(CC2CC=CC2)c(=O)[nH]c1=O
30,234 to 236,CC(=O)NC1=C(C#N)C(c2cccc([N+](=O)[O-])c2)=C2C=Cc3ccccc3C2O1 (stereo not given)
